Measurements published in ChEMBL document CHEMBL5120914, “An O-Benzyl Phosphonamidate Prodrug of Tenofovir for the Treatment of Hepatitis B Virus Infection” (J Med Chem, 2022).

What was measured:
Hepatitis B virus [1] = assay: Antiviral activity against Hepatitis B virus infected in human HepG2.2.15 cells assessed as inhibition of viral DNA replication at 1 uM measured after 6 days by FQ-PCR analysis relative to control; type: functional, HepG2 2.2.15; parameters: scale not given: the % may be the effect or the level left; settings: time 6 day
[2] = Cytotoxicity against human HepG2 cells assessed as reduction in cell growth incubated for 3 days by MTT assay; type: toxicity, cell-based; settings: time 3 day
Hepatitis B virus [3] = assay: Antiviral activity against Hepatitis B virus infected in human HepG2.2.15 cells assessed as inhibition of viral DNA replication measured for 9 days by FQ-PCR analysis; type: functional, organism-based; settings: HepG2 2.2.15, 216 h

Compound	Activity (Hepatitis B virus [1]) [%]	CC50 at 72 h [2] [µM]	EC50 (Hepatitis B virus [3]) [µM]	Activity (Hepatitis B virus [1]; 144 h, 1 µM) [%]
COc1cccc(COP(=O)(CO[C@H](C)Cn2cnc3c(N)ncnc32)N[C@@H](C)C(=O)OC(C)C)c1 (stereo not given in full)	46.33	> 500		
Cc1ccccc1COP(=O)(CO[C@H](C)Cn1cnc2c(N)ncnc21)N[C@@H](C)C(=O)OC1CCCCC1 (stereo not given in full)	21.46	> 500		
CC(C)OC(=O)[C@H](C)NP(=O)(CO[C@H](C)Cn1cnc2c(N)ncnc21)OCc1cccc(Br)c1 (stereo not given in full)	31.94	> 500		
CC(C)OC(=O)[C@H](C)NP(=O)(CO[C@H](C)Cn1cnc2c(N)ncnc21)OCc1ccccc1Cl (stereo not given in full)	42.6	> 500		
CC(C)OC(=O)[C@H](C)NP(=O)(CO[C@H](C)Cn1cnc2c(N)ncnc21)OCc1ccc(Br)cc1 (stereo not given in full)		> 500		
Cc1ccccc1COP(=O)(CO[C@H](C)Cn1cnc2c(N)ncnc21)N[C@@H](C)C(=O)OCC(C)C (stereo not given in full)	25.78	> 500		
Cc1ccccc1COP(=O)(CO[C@H](C)Cn1cnc2c(N)ncnc21)N[C@@H](C)C(=O)OCC(C)(C)C (stereo not given in full)	35.22	> 500		
CC(C)OC(=O)[C@H](C)NP(=O)(CO[C@H](C)Cn1cnc2c(N)ncnc21)OCc1ccccc1[N+](=O)[O-] (stereo not given in full)	79.74	> 500	0.078	
CC(C)OC(=O)[C@H](C)NP(=O)(CO[C@H](C)Cn1cnc2c(N)ncnc21)OCc1ccc(F)cc1 (stereo not given in full)	43.65	> 500		
CC(C)OC(=O)[C@H](C)NP(=O)(CO[C@H](C)Cn1cnc2c(N)ncnc21)OCc1ccccc1 (stereo not given in full)	47.14	> 500		
Cc1ccc(COP(=O)(CO[C@H](C)Cn2cnc3c(N)ncnc32)N[C@@H](C)C(=O)OC(C)C)cc1 (stereo not given in full)	65.32	> 500	0.186	
CC(C)OC(=O)[C@H](C)NP(=O)(CO[C@H](C)Cn1cnc2c(N)ncnc21)OCc1cccc(Cl)c1 (stereo not given in full)	73.95	> 500	0.047	
COC(=O)[C@H](C)NP(=O)(CO[C@H](C)Cn1cnc2c(N)ncnc21)OCc1ccccc1C (stereo not given in full)	65.23	> 500	0.618	
CCOC(=O)[C@H](C)NP(=O)(CO[C@H](C)Cn1cnc2c(N)ncnc21)OCc1ccccc1C (stereo not given in full)	41.27	> 500		
Cc1ccccc1COP(=O)(CO[C@H](C)Cn1cnc2c(N)ncnc21)N[C@@H](C)C(=O)OC(C)C (stereo in doubt; 1a-2)				85.4
COC(=O)C[C@H](NP(=O)(CO[C@H](C)Cn1cnc2c(N)ncnc21)OCc1ccccc1C)C(=O)OC (stereo not given in full)	69.01	> 500	0.827	
CC(C)OC(=O)[C@H](C)NP(=O)(CO[C@H](C)Cn1cnc2c(N)ncnc21)OCc1cccc(C(F)(F)F)c1 (stereo not given in full)	35.34	> 500		
Cc1cccc(COP(=O)(CO[C@H](C)Cn2cnc3c(N)ncnc32)N[C@@H](C)C(=O)OC(C)C)c1 (stereo not given in full)	69.34	> 500	0.181	
